Test results taken from ChEMBL document CHEMBL2203135, “Novel progesterone receptor modulators: 4-aryl-phenylsulfonamides” (Bioorg Med Chem Lett, 2012).

Assay: Volume of distribution at steady state in rat at 2 mg/kg, iv
Type: ADME, organism-based
Design: dose 2 mg/kg, route intravenous
Settings: in vivo, read-out: Vdss

Vd: 0.5 L/kg
Structure (SMILES): CCS(=O)(=O)Nc1cc(F)c(-c2ccc(C#N)n2C)c(F)c1
